Tests used:
[1] = system: murine platelet lifespan; experiment: Platelet clearance analysis (biotinylated platelet lifespan) in HDACi-treated mice; conditions: for decrease in labelled (biotinylated) platelets in peripheral blood over time: IV NHS-biotin, seven days, 10 mg/kg panobinostat IP or 1 mg/kg romidepsin IP daily, compared to vehicle
Protocol: Mice were twice injected intravenously (IV), one hour apart, with 600 μg NHS-biotin in phospho-buffered saline (PBS) and 10% dimethyl sulphoxide (DMSO). At various time points peripheral blood was isolated from the tail, and 1 μl blood was washed twice in PBS and 10 mM EDTA. Platelets were stained with phycoerythrin-conjugated rat anti-CD41 and allophycocyanin-conjugated streptavidin (APC-A) for 30 minutes on ice. Samples were washed again and incubated with 0.125 μg/ml thiazole orange, which has increased uptake in high RNA-containing platelets, staining younger, reticulated platelet fraction, for 90 minutes. Flow cytometry was then performed on an LSR flow cytometer. By plotting the number of biotinylated platelets against time, an estimate of the life span was obtained by linear extrapolation, while the number of thiazole orange-positive, non-biotinylated platelets provided an estimate of new platelet production.
The mice were then treated for seven days with either 10 mg/kg panobinostat IP or 1 mg/kg romidepsin IP daily or vehicle, and the number of biotinylated platelets in peripheral blood was determined. […] ABT-737 is a BH3 mimetic that inhibits Bcl-xL, which causes direct platelet apoptosis. […] Megakaryocytes are the haematopoietic cells responsible for the production of platelets which reside in the bone marrow.

[2] = system: reticulated platelets; experiment: Reticulated platelet staining (thiazole orange), new platelet production; format: in vivo, C57BL/6 mice; conditions: for absolute number of reticulated (new) platelets: 6 day experiment, thiazole orange, FIG. 2
Protocol: To assess platelet production, C57BL/6 mice were treated with panobinostat, carboplatin and ABT-737, and the RNA-containing platelet fraction (i.e. new platelets) was determined by staining with thiazole orange (FIG. 2). The number of new, reticulated platelets in vehicle-treated mice remained relatively constant over the 6 day time span of the experiment.

[3] = system: platelet count; experiment: Compound III with eltrombopag in Hodgkin's lymphoma patient; format: in vivo, human; conditions: recommended dosage of compound III, Example 1
Protocol: (§1) A patient having Hodgkin's lymphoma is given the recommend dosage of compound III. […] A patient having Hodgkin's lymphoma is tested for thrombocytopenia. Patient is found to have a low blood cell count or a biomarker for thrombocytopenia. Patient is put on a regimen of compound III together with eltrombopag.

[4] = system: thrombocytopenia (TCP); experiment: HDACi-induced thrombocytopenia and co-treatment with TPO-mimetic; format: in vivo; conditions: wild-type C57BL/6 mice, 10 mg/kg IP daily, 12-day period
Protocol: To determine whether administration of a TPO-mimetic could ameliorate TCP, some of the panobinostat-treated mice were subjected to co-treatment with 20 μg/kg AMP-4 at day 0 and day 6 (FIG. 3).
To determine whether administration of a TPO-mimetic could ameliorate TCP, some of the romidepsin-treated mice were subjected to co-treatment with 20 μg/kg AMP-4 at day 0 and day 6 (FIG. 4).

[5] = system: platelet count; experiment: Compound III with eltrombopag in multiple myeloma patient; format: in vivo, human; conditions: recommended dosage of compound III, Example 3
Protocol: as §1, with “patient having multiple myeloma patient is given” for “patient having Hodgkin's lymphoma is given”

Row | patient's platelet count [3] | decrease in labelled (biotinylated) platelets in peripheral blood over time ([1]; mice, FIG. 1) | thrombocytopenia (TCP) [4] | absolute number of reticulated (new) platelets ([2]; C57BL/6 mice) | platelet count versus baseline ([2]; C57BL/6 mice, throughout the course of the experiment) | patient's platelet count [5] | reduction in platelet number ([1]; biotinylated platelets, two hours following administration) [%] | SMILES | platelet life span ([1]; mice, FIG. 1) | absolute reticulated platelet numbers ([2]; 6 days after the commencement of treatment) | new platelet production ([2]; first 4 days of treatment)
1 |  |  |  |  |  |  |  | N.N.O=C([O-])C1(C(=O)[O-])CCC1.[Pt+2] [carboplatin] | did not affect | significantly reduced | did not significantly affect
2 | begins to lower | remained similar to vehicle-treated mice | sustained TCP | dramatic decrease | remained well below baseline levels | begins to lower |  | Cc1[nH]c2ccccc2c1CCNCc1ccc(/C=C/C(=O)NO)cc1 [panobinostat, N-hydroxy-3-[4-[[[2-(2-methyl-1H-indol-3-yl)-ethyl]-amino]methyl]phenyl]-2E-2-propenamide] |  |  | 
3 |  | remained similar to vehicle-treated mice | sustained TCP |  |  |  |  | C/C=C1\NC(=O)[C@H]2CSSCC/C=C/[C@H](CC(=O)N[C@H](C(C)C)C(=O)N2)OC(=O)[C@H](C(C)C)NC1=O [romidepsin] |  |  | 
4 |  | rapidly reduced |  | substantial increase |  |  | 50 | CN(C)CC[C@H](CSc1ccccc1)Nc1ccc(S(=O)(=O)NC(=O)c2ccc(N3CCN(Cc4ccccc4-c4ccc(Cl)cc4)CC3)cc2)cc1[N+](=O)[O-] [ABT-737] |  |  | 

Reference: US20130171141A1, “COMBINATION OF HDAC INHIBITORS WITH THROMBOCYTOPENIA DRUGS” (NOVARTIS AG, priority 2010, published 2013)
